The record followed here is BindingDB's records for doi:10.1021/np200603g (Yunnan University, 2011).

The target of this assay is T1, Programmed cell death protein 4 (Homo sapiens, UniProt Q53EL6).
T1 sequence (Q53EL6 whole entry): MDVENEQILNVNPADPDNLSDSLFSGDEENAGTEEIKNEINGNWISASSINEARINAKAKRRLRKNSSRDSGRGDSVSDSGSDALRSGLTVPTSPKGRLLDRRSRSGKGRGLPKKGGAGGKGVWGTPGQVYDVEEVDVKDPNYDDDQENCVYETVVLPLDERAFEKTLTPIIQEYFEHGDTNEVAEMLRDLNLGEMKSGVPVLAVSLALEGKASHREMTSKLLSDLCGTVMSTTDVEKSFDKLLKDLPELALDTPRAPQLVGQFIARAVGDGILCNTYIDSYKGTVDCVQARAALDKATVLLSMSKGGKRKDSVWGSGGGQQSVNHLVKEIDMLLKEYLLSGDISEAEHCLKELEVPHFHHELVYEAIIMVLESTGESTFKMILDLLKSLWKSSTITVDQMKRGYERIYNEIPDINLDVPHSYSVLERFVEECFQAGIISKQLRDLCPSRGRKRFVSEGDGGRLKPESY
The assay can be described thus: Stabilization of Pdcd4 expressed in human HEK293 cells assessed as inhibition of TPA-induced degradation by luciferase reporter assay.

For the compound `Nc1ncnc2c1ccn2[C@@H]1O[C@H](CO)[C@@H](O)[C@H]1O` ['2-(4-AMINO-PYRROLO[2,3-D]PYRIMIDIN-7-YL)-5-HYDROXYMETHYL-TETRAHYDRO-FURAN-3,4-DIOL], the IC50 stood at 880 nM.
